According to ChEMBL document CHEMBL1155237, “Selective inhibitors of the mutant B-Raf pathway: discovery of a potent and orally bioavailable aminoisoquinoline” (J Med Chem, 2009):

Assays:
[1] = molecular target: Myosin light chain kinase, smooth muscle (Homo sapiens) (UniProt Q15746); test: Inhibition of MLCK assessed as enzyme activity at 1 uM relative to untreated control; parameters: scale not given: the % may be the effect or the level left
[2] = molecular target: Myosin-IIIb (Homo sapiens) (UniProt Q8WXR4); test: Inhibition of MYO3B assessed as enzyme activity at 1 uM relative to untreated control; parameters: scale not given: the % may be the effect or the level left
[3] = molecular target: cAMP-dependent protein kinase catalytic subunit PRKX (Homo sapiens) (UniProt P51817); test: Inhibition of PRKX assessed as enzyme activity at 1 uM relative to untreated control; parameters: scale not given: the % may be the effect or the level left
[4] = molecular target: Protein-tyrosine kinase 2-beta (Homo sapiens) (UniProt Q14289); test: Inhibition of PTK2B assessed as enzyme activity at 1 uM relative to untreated control; parameters: scale not given: the % may be the effect or the level left
[5] = molecular target: Serine/threonine-protein kinase RIO3 (Homo sapiens) (UniProt O14730); test: Inhibition of RIOK3 assessed as enzyme activity at 1 uM relative to untreated control; parameters: scale not given: the % may be the effect or the level left
[6] = molecular target: Epidermal growth factor receptor (Homo sapiens) (UniProt P04626+P00533+Q15303+P21860); test: Inhibition of EGFR E746-A750del mutant assessed as enzyme activity at 1 uM relative to untreated control; assay type: protein assay; parameters: scale not given: the % may be the effect or the level left
A-375 [7] = test: Antitumor activity against human A375 SQ2 cells xenografted in CD1 mouse assessed as inhibition of tumor growth at 1 mg/kg, po qd for 14 days; assay type: functional; settings: A-375, 336 h
A-375 [8] = test: Antitumor activity against human A375 SQ2 cells xenografted in CD1 mouse assessed as regression of tumor growth at 5 mg/kg, po qd for 14 days; assay type: functional
[9] = molecular target: cAMP-dependent protein kinase catalytic subunit beta (Homo sapiens) (UniProt P22694); test: Inhibition of PKACbeta assessed as enzyme activity at 1 uM relative to untreated control; parameters: scale not given: the % may be the effect or the level left
[10] = molecular target: Serine/threonine-protein kinase tousled-like 2 (Homo sapiens) (UniProt Q86UE8); test: Inhibition of TLK2 assessed as enzyme activity at 1 uM relative to untreated control; parameters: scale not given: the % may be the effect or the level left
[11] = molecular target: TRAF2 and NCK-interacting protein kinase (Homo sapiens) (UniProt Q9UKE5); test: Inhibition of TNIK assessed as enzyme activity at 1 uM relative to untreated control; parameters: scale not given: the % may be the effect or the level left
[12] = molecular target: Mitogen-activated protein kinase kinase kinase 20 (Homo sapiens) (UniProt Q9NYL2); test: Inhibition of ZAK assessed as enzyme activity at 1 uM relative to untreated control; parameters: scale not given: the % may be the effect or the level left

Myosin light chain kinase, smooth muscle (Homo sapiens), sequence (Q15746 whole entry): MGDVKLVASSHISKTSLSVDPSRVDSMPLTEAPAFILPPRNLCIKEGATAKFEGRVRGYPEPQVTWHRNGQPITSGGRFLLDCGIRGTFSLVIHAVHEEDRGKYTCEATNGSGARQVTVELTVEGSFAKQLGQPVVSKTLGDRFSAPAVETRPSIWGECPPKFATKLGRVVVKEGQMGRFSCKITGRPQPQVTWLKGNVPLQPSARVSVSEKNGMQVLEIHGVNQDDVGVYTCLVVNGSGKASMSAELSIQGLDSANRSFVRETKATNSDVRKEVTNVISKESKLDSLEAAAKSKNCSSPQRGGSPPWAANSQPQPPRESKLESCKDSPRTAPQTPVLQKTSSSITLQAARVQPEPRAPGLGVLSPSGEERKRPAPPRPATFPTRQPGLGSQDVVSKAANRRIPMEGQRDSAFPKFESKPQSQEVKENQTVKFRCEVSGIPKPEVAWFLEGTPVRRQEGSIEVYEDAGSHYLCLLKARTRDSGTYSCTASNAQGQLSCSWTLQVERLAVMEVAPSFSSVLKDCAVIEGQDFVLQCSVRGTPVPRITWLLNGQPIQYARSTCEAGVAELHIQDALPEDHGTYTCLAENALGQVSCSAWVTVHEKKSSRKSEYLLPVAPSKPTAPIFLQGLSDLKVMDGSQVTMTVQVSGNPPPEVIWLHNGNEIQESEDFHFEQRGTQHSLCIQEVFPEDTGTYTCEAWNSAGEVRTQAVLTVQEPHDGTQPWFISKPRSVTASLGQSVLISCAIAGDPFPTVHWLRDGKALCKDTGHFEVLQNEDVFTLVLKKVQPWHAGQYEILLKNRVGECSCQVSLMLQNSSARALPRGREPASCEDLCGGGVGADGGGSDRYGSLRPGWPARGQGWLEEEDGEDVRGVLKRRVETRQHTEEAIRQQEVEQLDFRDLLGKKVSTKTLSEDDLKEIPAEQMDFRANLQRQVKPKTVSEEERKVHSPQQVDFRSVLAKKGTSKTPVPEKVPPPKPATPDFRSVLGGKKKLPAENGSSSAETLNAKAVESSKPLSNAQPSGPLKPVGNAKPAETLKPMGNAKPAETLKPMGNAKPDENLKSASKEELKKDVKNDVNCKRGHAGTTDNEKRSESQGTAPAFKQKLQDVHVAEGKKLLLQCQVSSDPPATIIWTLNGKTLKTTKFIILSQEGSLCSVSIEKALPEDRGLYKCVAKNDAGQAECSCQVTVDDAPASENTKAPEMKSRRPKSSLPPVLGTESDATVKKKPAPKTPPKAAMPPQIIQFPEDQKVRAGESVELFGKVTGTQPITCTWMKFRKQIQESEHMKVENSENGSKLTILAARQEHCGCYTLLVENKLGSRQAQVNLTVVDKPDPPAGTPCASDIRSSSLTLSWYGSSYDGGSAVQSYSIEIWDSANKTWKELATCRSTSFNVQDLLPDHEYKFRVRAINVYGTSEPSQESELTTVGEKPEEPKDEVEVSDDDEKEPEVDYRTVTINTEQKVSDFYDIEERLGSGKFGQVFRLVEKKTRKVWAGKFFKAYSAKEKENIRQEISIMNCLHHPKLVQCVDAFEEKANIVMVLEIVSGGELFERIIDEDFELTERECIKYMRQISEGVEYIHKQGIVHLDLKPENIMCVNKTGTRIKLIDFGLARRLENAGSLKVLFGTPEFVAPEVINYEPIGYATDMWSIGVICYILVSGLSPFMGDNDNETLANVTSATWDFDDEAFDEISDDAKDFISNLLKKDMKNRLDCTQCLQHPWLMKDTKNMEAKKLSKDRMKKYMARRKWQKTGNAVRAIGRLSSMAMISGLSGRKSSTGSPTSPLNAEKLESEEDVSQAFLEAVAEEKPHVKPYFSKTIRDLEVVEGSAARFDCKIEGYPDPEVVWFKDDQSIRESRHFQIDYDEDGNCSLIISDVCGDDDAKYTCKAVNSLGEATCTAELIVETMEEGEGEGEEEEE
Protein-tyrosine kinase 2-beta (Homo sapiens), sequence (Q14289 whole entry, looked up): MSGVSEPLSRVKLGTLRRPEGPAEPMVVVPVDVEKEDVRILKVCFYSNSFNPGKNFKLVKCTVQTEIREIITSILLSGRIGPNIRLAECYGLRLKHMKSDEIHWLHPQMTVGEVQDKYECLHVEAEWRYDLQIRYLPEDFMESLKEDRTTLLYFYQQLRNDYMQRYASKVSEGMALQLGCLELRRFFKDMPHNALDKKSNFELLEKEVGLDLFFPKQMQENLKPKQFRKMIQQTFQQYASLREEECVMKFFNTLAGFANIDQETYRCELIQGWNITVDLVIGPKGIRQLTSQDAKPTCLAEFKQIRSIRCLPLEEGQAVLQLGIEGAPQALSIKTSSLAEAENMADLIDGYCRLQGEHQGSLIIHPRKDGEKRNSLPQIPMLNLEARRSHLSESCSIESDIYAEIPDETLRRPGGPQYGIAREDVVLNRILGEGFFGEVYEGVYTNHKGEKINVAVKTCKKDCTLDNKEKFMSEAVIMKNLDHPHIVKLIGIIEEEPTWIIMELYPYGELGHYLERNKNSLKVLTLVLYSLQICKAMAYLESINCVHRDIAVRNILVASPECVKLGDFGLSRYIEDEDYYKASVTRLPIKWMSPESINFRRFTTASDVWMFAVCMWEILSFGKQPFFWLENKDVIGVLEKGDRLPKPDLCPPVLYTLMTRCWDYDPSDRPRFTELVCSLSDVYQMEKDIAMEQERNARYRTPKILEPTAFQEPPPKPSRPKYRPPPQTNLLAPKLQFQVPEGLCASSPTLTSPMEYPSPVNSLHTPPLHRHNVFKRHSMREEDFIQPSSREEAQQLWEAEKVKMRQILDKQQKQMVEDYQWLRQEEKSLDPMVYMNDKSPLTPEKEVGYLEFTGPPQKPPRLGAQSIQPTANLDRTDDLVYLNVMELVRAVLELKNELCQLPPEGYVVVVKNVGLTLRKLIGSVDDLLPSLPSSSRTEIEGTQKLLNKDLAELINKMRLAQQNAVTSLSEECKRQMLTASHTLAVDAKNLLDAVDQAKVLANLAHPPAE
Myosin-IIIb (Homo sapiens), sequence (Q8WXR4 whole entry): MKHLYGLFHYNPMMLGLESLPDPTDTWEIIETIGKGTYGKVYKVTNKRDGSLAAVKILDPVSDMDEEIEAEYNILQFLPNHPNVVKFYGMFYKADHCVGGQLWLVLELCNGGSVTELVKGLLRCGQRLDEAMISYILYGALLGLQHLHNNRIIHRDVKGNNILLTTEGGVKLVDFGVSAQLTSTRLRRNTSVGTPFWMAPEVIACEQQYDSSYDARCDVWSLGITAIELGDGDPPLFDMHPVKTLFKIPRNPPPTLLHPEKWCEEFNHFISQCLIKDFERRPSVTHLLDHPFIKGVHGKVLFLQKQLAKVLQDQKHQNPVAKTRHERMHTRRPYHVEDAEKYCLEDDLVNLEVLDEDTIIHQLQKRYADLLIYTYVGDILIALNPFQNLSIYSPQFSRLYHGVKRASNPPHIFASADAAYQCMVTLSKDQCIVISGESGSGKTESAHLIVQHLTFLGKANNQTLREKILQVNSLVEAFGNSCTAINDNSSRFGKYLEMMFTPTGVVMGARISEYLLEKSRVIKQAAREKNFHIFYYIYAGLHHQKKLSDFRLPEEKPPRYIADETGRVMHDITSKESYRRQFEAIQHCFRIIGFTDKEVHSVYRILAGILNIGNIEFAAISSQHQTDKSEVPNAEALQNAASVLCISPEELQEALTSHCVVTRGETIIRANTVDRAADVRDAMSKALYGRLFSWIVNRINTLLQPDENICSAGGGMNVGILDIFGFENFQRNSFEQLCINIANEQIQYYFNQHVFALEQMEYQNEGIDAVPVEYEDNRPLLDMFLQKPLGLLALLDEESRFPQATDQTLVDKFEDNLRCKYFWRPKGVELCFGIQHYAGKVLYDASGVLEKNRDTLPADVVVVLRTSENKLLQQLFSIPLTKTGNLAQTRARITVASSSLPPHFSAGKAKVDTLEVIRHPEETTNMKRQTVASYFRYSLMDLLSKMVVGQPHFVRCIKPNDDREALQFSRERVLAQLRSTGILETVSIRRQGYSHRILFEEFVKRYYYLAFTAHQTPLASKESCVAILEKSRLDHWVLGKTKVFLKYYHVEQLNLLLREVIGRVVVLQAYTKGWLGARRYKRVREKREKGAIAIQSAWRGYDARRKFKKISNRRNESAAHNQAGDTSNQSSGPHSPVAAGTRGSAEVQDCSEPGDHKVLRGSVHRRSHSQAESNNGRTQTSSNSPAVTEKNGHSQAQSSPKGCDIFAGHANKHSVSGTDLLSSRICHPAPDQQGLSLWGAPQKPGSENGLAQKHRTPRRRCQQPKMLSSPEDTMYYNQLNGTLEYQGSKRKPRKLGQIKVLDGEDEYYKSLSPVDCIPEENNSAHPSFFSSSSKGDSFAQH
Serine/threonine-protein kinase RIO3 (Homo sapiens), sequence (O14730 whole entry): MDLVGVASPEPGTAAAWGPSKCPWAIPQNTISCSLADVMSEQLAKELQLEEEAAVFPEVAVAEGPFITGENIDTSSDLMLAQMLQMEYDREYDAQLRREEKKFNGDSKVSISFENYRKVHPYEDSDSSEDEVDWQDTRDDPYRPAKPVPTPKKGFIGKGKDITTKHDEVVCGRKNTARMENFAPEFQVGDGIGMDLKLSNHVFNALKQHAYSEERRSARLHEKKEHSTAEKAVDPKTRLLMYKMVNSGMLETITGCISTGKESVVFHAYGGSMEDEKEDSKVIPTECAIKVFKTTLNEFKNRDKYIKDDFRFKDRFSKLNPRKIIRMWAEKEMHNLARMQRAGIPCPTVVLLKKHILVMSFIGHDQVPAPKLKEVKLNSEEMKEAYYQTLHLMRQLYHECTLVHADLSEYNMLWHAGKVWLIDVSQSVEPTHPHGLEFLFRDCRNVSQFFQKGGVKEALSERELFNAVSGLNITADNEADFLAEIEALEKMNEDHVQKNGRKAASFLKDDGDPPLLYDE

Compound: Cc1ccc2c(Nc3ccc(Cl)cc3)nccc2c1Nc1ncccc1-c1ncnc2[nH]cnc12.Cl.Cl.Cl
- Activity [1]: 99%
- Activity [2]: 68%
- Activity [3]: 65%
- Activity [4]: 40%
- Activity [5]: 77%
- Activity [6]: 86%
- inhibition in vivo at 1 mg/kg (A-375 [7]): 22%
- Activity (A-375 [8]): 85%
- Activity [9]: 94%
- Activity [10]: 100%
- Activity [11]: 100%
- Activity [12]: 87%
